Patent US20190046513A1, “COMBINATION THERAPIES OF HDAC INHIBITORS AND TUBULIN INHIBITORS” (HUYA Bioscience International, LLC, priority 2017, published 2019)
Where a name gives a salt, the structure may show the parent alone.

Experiments:
Assay type in all cases: in vivo, BALB/c mice
[1] = tested on: 4T1 murine mammary carcinoma cells; assay: Tumor growth delay, subcutaneous 4T1 tumors (Example 1, Study Group A); conditions: for Median TTE: endpoint tumor volume 1000 mm^3, n=10; for % TGD: vs vehicle group
Protocol: (§1) In the present example, HBI-8000 was tested as monotherapy at 50 mg/kg, and in combination with eribulin mesylate at 0.3 mg/kg and 1.0 mg/kg. The experiment included a vehicle-treated group, and eribulin at 0.3 mg/kg and 1.0 mg/kg, which served as the control groups for analysis of efficacy.
Two study groups were used; in the first group (Study Group A) tumor growth inhibition and survival were measured. Tumors were measured twice per week until the study was ended on Day 21. Each animal was euthanized when its tumor attained the endpoint tumor volume of 1000 mm^3 or on the final day of the study, whichever came first, and the time to endpoint (TTE) for each mouse was calculated. Treatment response was determined from an analysis of percent tumor growth delay (% TGD), defined as the percent increase in the median time to endpoint (TTE) for treated versus control mice; and by log-rank significance of differences in survival among groups and regression responses.
Mice: Female BALB/c mice (Charles River Laboratories) were seven weeks old, with a body weight (BW) range of 15.6 to 20.2 grams on Day 1 of the study. The animals were fed ad libitum water (reverse osmosis, 1 ppm Cl), and NIH 31 Modified and Irradiated Lab Diet® consisting of 18.0% crude protein, 5.0% crude fat, and 5.0% crude fiber. The mice were housed on irradiated Enrich-O'Cobs™ Laboratory Animal Bedding in static microisolators on a 12-hour light cycle at 20-22° C. (68-72° F.) and 40-60% humidity.
Tumor Cells: 4T1 murine mammary carcinoma cells were maintained in Dulbecco's Modified Eagle Medium (DMEM) supplemented with 10% fetal bovine serum and 2 mM glutamine, 100 units/mL penicillin G sodium, 100 μg/mL streptomycin sulfate, and 25 μg/mL gentamicin. Cell cultures were maintained in tissue culture flasks in a humidified incubator at 37° C., in an atmosphere of 5% CO2 and 95% air.
(§2) Tumor Implantation: Cells were harvested during exponential growth, and resuspended in cold DMEM. Each mouse was inoculated subcutaneously in the right flank with 1×10^6 4T1 cells (0.1 mL of cell suspension). Tumors were calipered in two dimensions to monitor growth as their mean volume approached the desired 100-150 mm^3 range. Tumor burden was calculated using the formula:
where w=width and 1=length, in mm, of the tumor. Tumor weight may be estimated with the assumption that 1 mg is equivalent to 1 mm^3 of tumor volume. Nine days after tumor implantation, which was designated as Day 1 of the study, animals with individual tumor volumes from 108 to 126 mm^3 were sorted into treatment groups. For Study Group A the animals were sorted into 6 treatment groups (Table 1; n=10/group) with group mean tumor volume of 117 mm^3. For Study Group B the animals were also sorted into 6 treatment groups (Table 1; n=5/group) with group mean tumor volume of 117 mm^3.
Tumor Growth Delay: Tumors were measured using calipers twice per week, and each animal was euthanized when its tumor reached a volume of 1000 mm^3 or at the end of the study (D47), whichever came first. Animals that exited the study for tumor volume endpoint were documented as euthanized for tumor progression (TP), with the date of euthanasia. The time to endpoint (TTE) for analysis was calculated for each mouse by the following equation: […]
where TTE is expressed in days, endpoint volume is expressed in mm^3, b is the intercept, and m is the slope of the line obtained by linear regression of a log-transformed tumor growth data set. The data set consisted of the first observation that exceeded the endpoint volume used in analysis and the three consecutive observations that immediately preceded the attainment of this endpoint volume. The calculated TTE is usually less than the TP date, the day on which the animal was euthanized for tumor burden. […]

[2] = tested on: 4T1 murine mammary carcinoma cells; assay: Lung metastasis count, 4T1 tumor-bearing mice (Example 2); conditions: HBI-8000 50 mg/kg p.o. qd×16, eribulin 1 mg/kg i.v., Day 18, FIG. 3
Protocol: (§3) In the present example, HBI-8000 was tested as monotherapy at 50 mg/kg, and in combination with eribulin mesylate at 1.0 mg/kg. The experiment included a vehicle-treated group, and eribulin at 1.0 mg/kg, which served as the control groups for analysis of efficacy.
Two study groups were used; in the first group, a sentinel group (termed LOOK-SEE) tumor-bearing mice were monitored for the development of lung metastases until the number of metastatic nodules reached 30-50 per animal. After meeting that criteria, all animals in Group B, the main study group, were euthanized on Day 18, the lungs removed and processed for analysis of metastatic burden.
as §2, with “0.5×10^6” for “1×10^6”
where w=width and 1=length, in mm, of the tumor. Tumor weight may be estimated with the assumption that 1 mg is equivalent to 1 mm3 of tumor volume. […]

[3] = tested on: 4T1 murine mammary carcinoma cells; assay: Primary tumor volume distribution, 4T1 tumor-bearing mice (Example 2); conditions: HBI-8000 50 mg/kg p.o. qd×16, eribulin 1 mg/kg i.v., FIG. 4
Protocol: as §3
as §2, with “0.5×10^6” for “1×10^6”
where w=width and 1=length, in mm, of the tumor. Tumor weight may be estimated with the assumption that 1 mg is equivalent to 1 mm3 of tumor volume. Fourteen days after tumor implantation, which was designated as Day 1 of the study, animals with individual tumor volumes from animals with individual tumor volumes ranging from 75 to 108 mm3 were sorted into the “LOOK-SEE” group (n=15) and eight efficacy groups (n=10) with group mean tumor volumes of 95 mm3.
Treatment: On Day 1 of the study, mice bearing established 4T1 tumors began dosing according to the treatment plan described below. All agents were administered in dosing volumes of 10 mL/kg; volumes were adjusted according to BW of the individual animal. […]

[4] = tested on: 4T1 murine mammary carcinoma cells; assay: Lung metastasis count, 4T1 tumor-bearing mice (Example 1, Study Group B); conditions: Example 1, monotherapies; Day 14
Protocol: as §1
In the second group (Study Group B, tumor-bearing mice were monitored for the development of lung metastases until the number of metastatic nodules reached 30-50 per animal. All animals were euthanized on Day 14, the lungs removed and processed for analysis of metastatic burden.
where w=width and 1=length, in mm, of the tumor. Tumor weight may be estimated with the assumption that 1 mg is equivalent to 1 mm^3 of tumor volume. […]
Lung Metastasis: Animals were sacrificed at endpoint using isoflurane anesthesia and necropsies were performed to identify metastases. […] Percent inhibition was defined as the difference between the number of metastatic foci of the designated control group and the number of metastatic foci of the drug-treated group, expressed as a percentage of the number of metastatic foci of the designated control group: […]
Statistics: Prism (GraphPad) for Windows 6.07 was used for graphical presentations and statistical analyses. […] Logrank analysis includes the data for all animals in a group except those assessed as NTR deaths. […]

[5] = HBI-8000 50 mg/kg p.o., qd × 21
[6] = Eribulin mesylate 0.3 mg/kg i.v., qowk × 2
[7] = Eribulin mesylate 1.0 mg/kg i.v., qowk × 2

Row | SMILES | tumor volume distribution ([1]; Example 1, HBI-8000 monotherapy 50 mg/kg, P<0.01) | Median TTE [1, 5] | % TGD [1, 5] | metastatic lung foci [2] | primary tumor volume distribution [3] | number of lung metastatic foci [4] | Median TTE [1, 6] | % TGD [1, 6] | Median TTE [1, 7] | % TGD [1, 7]
1 | Nc1cc(F)ccc1NC(=O)c1ccc(CNC(=O)/C=C/c2cccnc2)cc1 [HBI-8000, N-(2-amino-4-fluorophenyl)-4-[[[(2E)-1-oxo-3-(3-pyridinyl)-2-propen-1-yl]amino]methyl]benzamide] | significant ((P<0.01) reduction in the tumor volume distribution | 18.8 days | 12% | statistically significant (P<0.05) decrease in metastatic lung foci | statistically significant (P<0.001) decrease in primary tumor volume distribution compared to vehicle controls | did not significantly inhibit the number of lung metastatic foci | – | – | – | –
2 | C=C1C[C@@H]2CC[C@@]34C[C@H]5O[C@H]6[C@@H](O3)[C@H]3OC(CC[C@@H]3O[C@H]6C5O4)CC(=O)C[C@@H]3[C@@H](OC)[C@@H](C[C@H](O)CN)O[C@H]3CC3O[C@@H](CCC1O2)C[C@@H](C)C3=C [Eribulin mesylate, 11,15:18,21:24,28 Triepoxy-7,9-ethano-12,15-methano-9H, 15H-furo[3,2-i]furo[2′,3′: 5,6]pyrano[4,3b][1,4]dioxacyclopentacosin-5(4H)-one,2-[(2S)-3-amino-2-hydroxypropyl]hexacosahydro-3 methoxy-26-methyl-20,27-bis(methylene)-, (2R,3R,3aS,7R,8aS,9S,10aR,11S,12R,13aR,13bS,15S,18S,21 S,24S,26R,28R,29aS)-, methanesulfonate (salt)] | – | – | – | did not produce a statistically significant decrease in metastatic lung foci | did not produce a statistically significant decrease in primary tumor volume distribution | did not significantly inhibit the number of lung metastatic foci | 17.8 days | 6% | 17.6 days | 5%
